The subject of experiment [1] is adjuvant-induced arthritis (paw volume, uninjected left hind paw). The experiment in a line: Established adjuvant-induced arthritis in rats. It counts as in vivo, rat (male Charles River Lewis). Conditions: for ED50: Rattus norvegicus, read-out: Adjuvant Arthritis ED50; for Adjuvant Arthritis, percent reduction in paw volume at the indicated dose: at 27 mg/kg.
Experiment [2] has as its system phenylquinone-induced writhing. Kind of experiment: Phenylquinone writhing test. It counts as in vivo, mouse (female white). To be noted: Mus musculus, read-out: Phenylquinone Writhing (PQW) ED50. Here is the method:
PHENYLQUINONE WRITHING TEST
A standard procedure for detecting and comparing the analgesic activity of compounds in this series for which there is a good correlation with human efficacy is the standard phenylquinone writhing test modified from Siegmund, et al., Proc. Soc. Exp. Biol. Med., 95, 729 (1957). A test compound suspended in 1% methylcellulose was given orally to fasted (17-21 hours) female white mice, 5-20 animals per double blind test. Aqueous (0.01% phenyl-p-benzoquinone) phenylquinone, 0.20 ml per mouse, was injected intraperitoneally 6 minutes before observations were begun. […] The effective analgesic dose for 50% of the mice (ED50) was calculated by the moving average method of Thompson, W. R., Bact. Rev., 11, 115-145 (1947); the time of peak activity was determined for many of the compounds. Data for some of the compounds are summarized in Table II together with data for some standard analgetic-antiinflammatory drugs.
A general note: In writhing tests, fewer writhes than in controls are read as antinociception.

The mark [3] stands for this setting: oral, 7 daily doses, rats, effective dose for 50% decrease from control paw volume, read from dose-response line by inspection.
[4] abbreviates: oral, mice, effective analgesic dose for 50% of the mice, moving average method.

Data on 9 compounds can be found in US4500520A, “Antiinflammatory and/or analgesic silylfurans” (E. I. Du Pont de Nemours and Company, priority 1983, dated 1985).

What is called ED50 is the dose at which the effect has come halfway, by size or by number of responders.

SMILES strings stand for the structures. Like-named read-outs stand apart in the source and are kept apart here.

Regarding `CC(C)Cc1ccc(C(C)C(=O)O)cc1` (stereo not drawn) [Ibuprofen, reference compound], the ED50 in experiment [1] (setting [3]) stood at 100 mg/kg; in experiment [2] (setting [4]) it was 10 mg/kg.

In the case of `Cc1ccc(-c2cc([Si](C)(C)C)oc2-c2ccc(Cl)cc2)cc1` [Example 5, 5-(4-Chlorophenyl)-4-(4-methylphenyl)-2-trimethylsilylfuran], the “Adjuvant Arthritis, percent reduction in paw volume at the indicated dose” value (from here on “Adjuvant Arthritis, percent reduction”) in experiment [1] (oral, 7 daily doses, rats) was found to be 15%. The ED50 in experiment [2] (po) is above 135 mg/kg.

As to `CCCCC1C(=O)N(c2ccccc2)N(c2ccccc2)C1=O` [Phenylbutazone, reference compound], the ED50 in experiment [1] (setting [3]) came out at 10 mg/kg; in experiment [2] (setting [4]), 80 mg/kg.

Consider `C[Si](C)(C)c1cc(-c2ccccc2)c(-c2ccccc2)o1` [Example 3, 4,5-Diphenyl-2-trimethylsilylfuran], for which the “Adjuvant Arthritis, percent reduction” value in experiment [1] (oral, 7 daily doses, rats) is listed as 24%. The ED50 in experiment [2] (po) turned out to be 94 mg/kg.

As to `CSc1ccc(-c2cc([Si](C)(C)C)oc2-c2ccc(F)cc2)cc1` [Example 4, 5-(4-Fluorophenyl)-4-(4-methylthiophenyl)-2-trimethylsilylfuran], the figures for the ED50 in experiment [1] (po) and in experiment [2] (po) were above 27 mg/kg and above 135 mg/kg, respectively.

In the case of `CC(=O)Oc1ccccc1C(=O)O` [Aspirin, reference compound], the ED50 in experiment [1] (po) worked out at 305 mg/kg; in experiment [2] (po), 135 mg/kg.

Turning to `C[Si](C)(C)c1cc(-c2ccc(F)cc2)c(-c2ccc(F)cc2)o1` [Example 1, 4,5-bis(4-Fluorophenyl)-2-trimethylsilylfuran], the “Adjuvant Arthritis, percent reduction” value in experiment [1] (oral, 7 daily doses, rats) is listed as 32%. Moreover, the ED50 in experiment [2] (po) amounted to 39 mg/kg.

Take `COc1ccc2c(c1)c(CC(=O)O)c(C)n2C(=O)c1ccc(Cl)cc1` [Indomethacin, reference compound]: the ED50 in experiment [1] (po) was 0.3 mg/kg; in experiment [2] (po) it was 0.35 mg/kg.

With `COc1ccc(-c2cc([Si](C)(C)C)oc2-c2ccc(OC)cc2)cc1` [Example 2, 4,5-bis(4-Methoxyphenyl)-2-trimethylsilylfuran], the ED50 in experiment [1] (po) came out at 2.5 mg/kg; in experiment [2] (po) it was 2.3 mg/kg.
